Results taken from patent US20250009830A1 (priority 2021, published 2025).
Like-named read-outs stand apart in the source and are kept apart here.

What was measured:
Assay in all cases: microbe, parasite or virus in culture
Assay type in all cases: cell-based
Conditions in all cases: read-out: IC50 of the main compounds of EC 3.2
[1] = tested on: SARS-CoV-2 Delta
[2] = tested on: SARS-CoV-2 Beta
[3] = tested on: SARS-CoV-2 Wuhan type (SARS-CoV-2PR-1)
[4] = tested on: SARS-CoV-2 Gamma
[5] = tested on: SARS-CoV-2 Alpha
[6] = tested on: SARS-CoV-2 Omicron
[7] = Severe acute respiratory syndrome coronavirus 2, Calu-3, calculated from EC 3.2 IC50 and HPLC analysis (Table 4)
[8] = Calu-3, calculated from EC 3.2 IC50 and HPLC analysis (Table 4)

Row | Structure (SMILES) | IC50 [1, 7] | IC50 [2, 7] | IC50 [3, 7] | IC50 [4, 7] | IC50 [5, 7] | IC50 [6, 7] | IC50 [1, 8] | IC50 [2, 8] | IC50 [3, 8] | IC50 [4, 8] | IC50 [5, 8] | IC50 [6, 8]
1 | O=C(/C=C/c1ccc(O)c(O)c1)O[C@@H]1C[C@](O)(C(=O)O)C[C@@H](O)[C@H]1O [Chlorogenic acid] | 13 µM | 20 µM | 6.6 µM | 20 µM | 27 µM | 13 µM | – | – | – | – | – | –
2 | OC[C@H]1O[C@@H](Oc2cc3c(O)cc(O)cc3[o+]c2-c2ccc(O)c(O)c2)[C@H](O)[C@@H](O)[C@@H]1O [Cyanidin-3-glucoside] | – | – | – | – | – | – | 82 µM | 123 µM | 41 µM | 123 µM | 165 µM | 82 µM
3 | OC[C@H]1O[C@@H](Oc2cc(O)cc3[o+]c(-c4ccc(O)c(O)c4)c(O[C@@H]4O[C@H](CO)[C@@H](O)[C@H](O)[C@H]4O[C@@H]4OC[C@@H](O)[C@H](O)[C@H]4O)cc23)[C@H](O)[C@@H](O)[C@@H]1O [Cyanidin-3-sambubioside-5-glucoside] | – | – | – | – | – | – | 12 µM | 18 µM | 6 µM | 18 µM | 24 µM | 12 µM
4 | OC[C@H]1O[C@@H](Oc2cc3c(O)cc(O)cc3[o+]c2-c2ccc(O)c(O)c2)[C@H](O[C@@H]2OC[C@@H](O)[C@H](O)[C@H]2O)[C@@H](O)[C@@H]1O [Cyanidin-3-sambubioside] | – | – | – | – | – | – | 71 µM | 107 µM | 35 µM | 107 µM | 142 µM | 71 µM
5 | O=c1c(O[C@@H]2O[C@H](CO)[C@@H](O)[C@H](O)[C@H]2O)c(-c2ccc(O)c(O)c2)oc2cc(O)cc(O)c12 [Isoquercitrin] | 2.7 µM | 4 µM | 1.3 µM | 4 µM | 5.4 µM | 2.7 µM | – | – | – | – | – | –
6 | C[C@@H]1O[C@@H](OC[C@H]2O[C@@H](Oc3c(-c4ccc(O)c(O)c4)oc4cc(O)cc(O)c4c3=O)[C@H](O)[C@@H](O)[C@@H]2O)[C@H](O)[C@H](O)[C@H]1O [Rutin] | 34 µM | 51 µM | 17 µM | 51 µM | 68 µM | 34 µM | – | – | – | – | – | –
